# How the values were obtained:
# [1] = target: Cyclin-dependent kinase 2 (Homo sapiens, UniProt P24941); assay: Inhibition of CDK2
# [2] = target: Vascular endothelial growth factor receptor 2 (Homo sapiens, UniProt P35968)
# L2987 [3] = assay: Antiproliferative activity against L2987 cells; settings: Homo sapiens
# HUVEC = assay: Antiproliferative activity against VEGF-stimulated HUVEC; settings: Homo sapiens
# [4] = target: Protein kinase C delta type (Homo sapiens, UniProt Q05655); assay: Inhibition of PKCdelta
# [5] = target: Protein kinase C zeta type (Homo sapiens, UniProt Q05513); assay: Inhibition of PKCzeta
# [6] = target: Receptor tyrosine-protein kinase erbB-2 (Homo sapiens, UniProt P04626); assay: Inhibition of Her2
# Receptor tyrosine-protein kinase erbB-2, sequence (P04626 whole entry): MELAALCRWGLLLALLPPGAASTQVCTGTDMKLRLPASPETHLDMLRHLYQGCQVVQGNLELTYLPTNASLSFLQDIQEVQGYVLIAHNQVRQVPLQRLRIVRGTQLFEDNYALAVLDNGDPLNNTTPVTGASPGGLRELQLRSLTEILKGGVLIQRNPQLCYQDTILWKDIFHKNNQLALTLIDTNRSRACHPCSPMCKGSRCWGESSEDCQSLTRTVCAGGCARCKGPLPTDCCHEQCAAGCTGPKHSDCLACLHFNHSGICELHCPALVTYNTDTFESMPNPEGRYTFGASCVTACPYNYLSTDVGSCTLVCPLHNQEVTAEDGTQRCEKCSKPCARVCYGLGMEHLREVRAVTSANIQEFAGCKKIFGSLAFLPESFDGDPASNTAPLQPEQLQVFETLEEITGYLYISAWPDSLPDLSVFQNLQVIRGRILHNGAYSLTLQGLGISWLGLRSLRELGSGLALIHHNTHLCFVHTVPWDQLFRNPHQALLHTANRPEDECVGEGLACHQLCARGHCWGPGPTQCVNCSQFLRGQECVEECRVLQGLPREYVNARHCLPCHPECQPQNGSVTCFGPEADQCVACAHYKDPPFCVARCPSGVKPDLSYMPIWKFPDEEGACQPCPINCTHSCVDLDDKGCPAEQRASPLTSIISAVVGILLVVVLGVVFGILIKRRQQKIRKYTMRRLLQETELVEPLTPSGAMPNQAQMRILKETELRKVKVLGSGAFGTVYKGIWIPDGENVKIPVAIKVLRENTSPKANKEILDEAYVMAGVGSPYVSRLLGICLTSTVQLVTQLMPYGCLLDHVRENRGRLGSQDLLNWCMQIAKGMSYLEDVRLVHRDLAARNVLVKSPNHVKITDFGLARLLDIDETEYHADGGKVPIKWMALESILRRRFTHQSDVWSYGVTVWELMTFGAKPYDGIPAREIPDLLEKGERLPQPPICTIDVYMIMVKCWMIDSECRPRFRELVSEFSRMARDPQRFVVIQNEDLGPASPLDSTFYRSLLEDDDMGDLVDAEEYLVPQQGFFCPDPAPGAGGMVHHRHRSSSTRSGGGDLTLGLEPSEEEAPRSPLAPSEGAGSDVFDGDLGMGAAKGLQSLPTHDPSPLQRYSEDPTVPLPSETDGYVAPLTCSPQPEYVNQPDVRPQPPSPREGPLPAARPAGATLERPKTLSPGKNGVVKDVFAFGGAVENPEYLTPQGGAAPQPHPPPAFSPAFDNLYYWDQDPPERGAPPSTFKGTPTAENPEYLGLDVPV
# [7] = target: Tyrosine-protein kinase ITK/TSK (Homo sapiens, UniProt Q08881); assay: Inhibition of Itk
# [8] = target: Tyrosine-protein kinase SYK (Homo sapiens, UniProt P43405); assay: Inhibition of Syk
# [9] = target: Tyrosine-protein kinase JAK3 (Homo sapiens, UniProt P52333); assay: Inhibition of JAK3
# [10] = target: MAP kinase-activated protein kinase 2 (Homo sapiens, UniProt P49137); assay: Inhibition of MAPKAPK2
# MAP kinase-activated protein kinase 2, sequence (P49137 whole entry): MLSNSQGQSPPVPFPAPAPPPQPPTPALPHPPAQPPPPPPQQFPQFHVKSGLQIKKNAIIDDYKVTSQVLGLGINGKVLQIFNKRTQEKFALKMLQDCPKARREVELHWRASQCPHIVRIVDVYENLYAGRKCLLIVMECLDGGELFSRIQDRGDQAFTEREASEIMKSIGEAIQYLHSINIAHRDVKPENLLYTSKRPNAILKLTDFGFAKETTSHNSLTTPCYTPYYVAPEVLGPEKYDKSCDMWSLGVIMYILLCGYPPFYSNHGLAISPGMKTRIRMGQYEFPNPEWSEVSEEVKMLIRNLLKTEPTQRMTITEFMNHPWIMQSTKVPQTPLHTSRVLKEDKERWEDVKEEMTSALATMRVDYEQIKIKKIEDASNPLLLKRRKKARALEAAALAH
# [11] = Cmax in Balb/C mouse at 90 mg/kg, po; assay type: ADME, organism-based; set-up: dose 90 mg/kg, route oral; settings: in vivo
# [12] = Tmax in Balb/C mouse at 90 mg/kg, po; assay type: ADME, organism-based; set-up: dose 90 mg/kg, route oral; settings: in vivo
# Mus musculus = assay: AUC (0-24h) in Balb/C mouse at 90 mg/kg, po; assay type: ADME, organism-based, Plasma; set-up: time < 24 hr, dose 90 mg/kg, route oral; settings: in vivo
# [13] = Half life in Balb/C mouse at 90 mg/kg, po; assay type: ADME, organism-based; set-up: dose 90 mg/kg, route oral; settings: in vivo
# [14] = Mean residence time in Balb/C mouse at 90 mg/kg, po; assay type: ADME, organism-based; set-up: dose 90 mg/kg, route oral; settings: in vivo
# [15] = Clearance in Balb/C mouse at 10 mg/kg, iv; assay type: ADME, organism-based; set-up: dose 10 mg/kg, route intravenous; settings: in vivo
# [16] = Volume of distribution in Balb/C mouse at 10 mg/kg, iv; assay type: ADME, organism-based; set-up: dose 10 mg/kg, route intravenous; settings: in vivo, read-out: Vss
# [17] = Bioavailability in Balb/C mouse at 90 mg/kg, po; assay type: ADME, organism-based; settings: in vivo
# [18] = Cmax in Sprague-Dawley rat at 50 mg/kg, po; assay type: ADME, organism-based; set-up: dose 50 mg/kg, route oral; settings: in vivo
# [19] = Tmax in Sprague-Dawley rat at 50 mg/kg, po; assay type: ADME, organism-based; set-up: dose 50 mg/kg, route oral; settings: in vivo
# Rattus norvegicus = assay: AUC in Sprague-Dawley rat at 50 mg/kg, po; assay type: ADME, organism-based, Plasma; set-up: dose 50 mg/kg, route oral; settings: in vivo
# [20] = Half life in Sprague-Dawley rat at 50 mg/kg, po; assay type: ADME, organism-based; set-up: dose 50 mg/kg, route oral; settings: in vivo
# [21] = Mean residence time in Sprague-Dawley rat at 50 mg/kg, po; assay type: ADME, organism-based; set-up: dose 50 mg/kg, route oral; settings: in vivo
# [22] = Clearance in Sprague-Dawley rat at 10 mg/kg, iv; assay type: ADME, organism-based; set-up: dose 10 mg/kg, route intravenous; settings: in vivo
# [23] = Volume of distribution in Sprague-Dawley rat at 10 mg/kg, iv; assay type: ADME, organism-based; set-up: dose 10 mg/kg, route intravenous; settings: in vivo, read-out: Vss
# [24] = Bioavailability in Sprague-Dawley rat at 50 mg/kg, po; assay type: ADME, organism-based; settings: in vivo
# [25] = Cmax in cynomolgus monkey at 5 mg/kg, po; assay type: ADME, organism-based, Macaca fascicularis; set-up: dose 5 mg/kg, route oral; settings: in vivo
# [26] = Tmax in cynomolgus monkey at 5 mg/kg, po; assay type: ADME, organism-based, Macaca fascicularis; set-up: dose 5 mg/kg, route oral; settings: in vivo
# Cynomolgus monkey [27] = assay: AUC in cynomolgus monkey at 5 mg/kg, po; assay type: ADME, organism-based, Macaca fascicularis, Plasma; set-up: dose 5 mg/kg, route oral; settings: in vivo
# [28] = target: Vascular endothelial growth factor receptor 1 (Homo sapiens, UniProt P17948); assay: Inhibition of VEGFR1
# [29] = target: Platelet-derived growth factor receptor beta (Homo sapiens, UniProt P09619); assay: Inhibition of PDGFR beta
# Platelet-derived growth factor receptor beta, sequence (P09619 whole entry): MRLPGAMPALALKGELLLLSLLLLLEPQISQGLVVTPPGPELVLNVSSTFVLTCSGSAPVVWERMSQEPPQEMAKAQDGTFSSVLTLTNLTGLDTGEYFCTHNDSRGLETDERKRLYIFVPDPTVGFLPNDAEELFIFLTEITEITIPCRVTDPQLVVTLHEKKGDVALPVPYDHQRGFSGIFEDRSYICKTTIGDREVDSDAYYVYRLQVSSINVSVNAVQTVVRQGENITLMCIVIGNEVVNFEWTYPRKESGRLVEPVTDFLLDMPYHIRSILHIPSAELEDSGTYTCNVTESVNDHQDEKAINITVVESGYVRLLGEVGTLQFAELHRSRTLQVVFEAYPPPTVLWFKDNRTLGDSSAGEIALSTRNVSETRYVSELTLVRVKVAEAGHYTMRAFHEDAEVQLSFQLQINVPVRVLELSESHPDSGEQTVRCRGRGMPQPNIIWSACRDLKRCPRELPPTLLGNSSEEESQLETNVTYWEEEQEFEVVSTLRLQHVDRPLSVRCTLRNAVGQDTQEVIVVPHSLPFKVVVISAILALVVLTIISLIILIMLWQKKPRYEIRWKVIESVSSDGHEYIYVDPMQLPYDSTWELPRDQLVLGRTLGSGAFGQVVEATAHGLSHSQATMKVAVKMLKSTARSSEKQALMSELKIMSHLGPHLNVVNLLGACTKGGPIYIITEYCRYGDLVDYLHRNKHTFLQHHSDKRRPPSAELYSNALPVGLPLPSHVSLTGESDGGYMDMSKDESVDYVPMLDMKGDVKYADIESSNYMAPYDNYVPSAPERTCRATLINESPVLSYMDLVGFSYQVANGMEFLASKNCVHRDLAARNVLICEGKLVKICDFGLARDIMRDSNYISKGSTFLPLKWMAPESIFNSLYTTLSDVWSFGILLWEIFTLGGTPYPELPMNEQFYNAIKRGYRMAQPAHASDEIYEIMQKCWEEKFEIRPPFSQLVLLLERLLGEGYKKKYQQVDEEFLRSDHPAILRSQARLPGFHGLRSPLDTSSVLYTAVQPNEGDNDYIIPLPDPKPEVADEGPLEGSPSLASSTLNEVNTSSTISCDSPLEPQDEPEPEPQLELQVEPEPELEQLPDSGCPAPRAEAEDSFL
# [30] = target: Mast/stem cell growth factor receptor Kit (Homo sapiens, UniProt P10721); assay: Inhibition of c-kit
# [31] = target: Fibroblast growth factor receptor 1 (Homo sapiens, UniProt P11362); assay: Inhibition of FGFR1
# [32] = target: Glycogen synthase kinase-3 (Homo sapiens, UniProt P49840+P49841); assay: Inhibition of GSK3; assay type: protein assay
# [33] = target: Dual specificity mitogen-activated protein kinase kinase 1 (Homo sapiens, UniProt Q02750); assay: Inhibition of MEK
# [34] = target: Serine/threonine-protein kinase AKT (Homo sapiens, UniProt P31751+Q9Y243+P31749); assay: Inhibition of AKT; assay type: protein assay
# MAP kinase p38 = MAP kinase p38 (Homo sapiens, UniProt O15264+Q15759+Q16539+P53778); assay: Inhibition of p38; assay type: protein assay
# [35] = target: Proto-oncogene tyrosine-protein kinase Src (Homo sapiens, UniProt P12931); assay: Inhibition of Src
# [36] = target: Inhibitor of NF-kappa-B kinase (IKK) (Homo sapiens, UniProt O14920+O15111+Q9Y6K9); assay: Inhibition of IKK; assay type: protein-complex assay
# SRSF protein kinase 1 = SRSF protein kinase 1 (Homo sapiens, UniProt Q96SB4); assay: Inhibition of SRPK1
# [37] = target: Insulin-like growth factor 1 receptor (Homo sapiens, UniProt P08069); assay: Inhibition of IGF1R
# [38] = target: Protein kinase C alpha type (Homo sapiens, UniProt P17252); assay: Inhibition of PKCalpha
# [39] = target: Protein kinase C eta type (Homo sapiens, UniProt P24723); assay: Inhibition of PKCeta
# Protein kinase C eta type, sequence (P24723 whole entry): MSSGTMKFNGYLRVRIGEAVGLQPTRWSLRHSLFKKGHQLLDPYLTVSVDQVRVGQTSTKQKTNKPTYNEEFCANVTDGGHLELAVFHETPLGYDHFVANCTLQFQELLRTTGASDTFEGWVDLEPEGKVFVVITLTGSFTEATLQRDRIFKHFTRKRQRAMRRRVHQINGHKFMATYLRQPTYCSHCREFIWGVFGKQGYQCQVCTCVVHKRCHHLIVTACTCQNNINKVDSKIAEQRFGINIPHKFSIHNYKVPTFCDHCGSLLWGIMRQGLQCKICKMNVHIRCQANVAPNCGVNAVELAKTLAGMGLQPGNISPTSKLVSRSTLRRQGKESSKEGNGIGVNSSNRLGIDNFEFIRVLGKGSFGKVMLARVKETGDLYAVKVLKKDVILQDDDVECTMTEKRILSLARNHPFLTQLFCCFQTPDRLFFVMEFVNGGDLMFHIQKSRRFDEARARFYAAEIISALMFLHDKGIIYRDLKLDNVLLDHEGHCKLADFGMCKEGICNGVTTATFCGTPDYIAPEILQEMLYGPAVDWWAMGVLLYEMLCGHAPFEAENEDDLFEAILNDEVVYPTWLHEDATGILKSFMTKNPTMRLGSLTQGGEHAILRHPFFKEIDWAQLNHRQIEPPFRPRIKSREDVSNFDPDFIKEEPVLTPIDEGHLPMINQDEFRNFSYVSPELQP
# HCT-116 [40] = assay: Inhibition of tumor growth in Athymic mouse xenografted with HCT116 at 25 mg/kg after 14 days; assay type: functional, Homo sapiens; settings: HCT-116, 336 h, read-out: TGI
# HCT-116 [41] = assay: Inhibition of tumor growth in Athymic mouse xenografted with HCT116 at 50 mg/kg after 14 days; assay type: functional, Homo sapiens; settings: HCT-116, 336 h, read-out: TGI
# [42] = target: Voltage-gated inwardly rectifying potassium channel KCNH2 (Homo sapiens, UniProt Q12809); assay: Inhibition of human ERG expressed in HEK293 cells; assay type: cell-based
# [43] = Half life in cynomolgus monkey at 5 mg/kg, po; assay type: ADME, organism-based, Macaca fascicularis; set-up: dose 5 mg/kg, route oral; settings: in vivo
# [44] = Mean residence time in cynomolgus monkey at 5 mg/kg, po; assay type: ADME, organism-based, Macaca fascicularis; set-up: dose 5 mg/kg, route oral; settings: in vivo
# [45] = Bioavailability in cynomolgus monkey at 5 mg/kg, po; assay type: ADME, organism-based, Macaca fascicularis; settings: in vivo
# L2987 [46] = assay: Inhibition of tumor growth in Athymic mouse xenografted with L2987 at 60 mg/kg after 14 days; assay type: functional, Homo sapiens; settings: L2987, 336 h, read-out: TGI
# L2987 [47] = assay: Inhibition of tumor growth in Athymic mouse xenografted with L2987 at 90 mg/kg after 14 days; assay type: functional, Homo sapiens; settings: L2987, 336 h, read-out: TGI
# L2987 [48] = assay: Inhibition of tumor growth in Athymic mouse xenografted with L2987 at 180 mg/kg after 14 days; assay type: functional, Homo sapiens; settings: L2987, 336 h, read-out: TGI
# L2987 [49] = assay: Inhibition of tumor growth in Athymic mouse xenografted with L2987 at 25 mg/kg after 14 days; assay type: functional, Homo sapiens; settings: L2987, 336 h, read-out: TGI
# L2987 [50] = assay: Inhibition of tumor growth in Athymic mouse xenografted with L2987 at 50 mg/kg after 14 days; assay type: functional, Homo sapiens; settings: L2987, 336 h, read-out: TGI
# HCT-116 [51] = assay: Inhibition of tumor growth in Athymic mouse xenografted with HCT116 at 12.5 mg/kg after 14 days; assay type: functional, Homo sapiens; settings: HCT-116, 336 h, read-out: TGI
# [52] = target: Vascular endothelial growth factor receptor 2 (Mus musculus) (UniProt P35918); assay: Inhibition of FLK1
# [53] = Clearance in cynomolgus monkey at 1 mg/kg, iv; settings: in vivo
# Cynomolgus monkey [54] = assay: Volume of distribution in cynomolgus monkey at 1 mg/kg, iv; settings: in vivo
# Vascular endothelial growth factor receptor 2, sequence (P35968 whole entry): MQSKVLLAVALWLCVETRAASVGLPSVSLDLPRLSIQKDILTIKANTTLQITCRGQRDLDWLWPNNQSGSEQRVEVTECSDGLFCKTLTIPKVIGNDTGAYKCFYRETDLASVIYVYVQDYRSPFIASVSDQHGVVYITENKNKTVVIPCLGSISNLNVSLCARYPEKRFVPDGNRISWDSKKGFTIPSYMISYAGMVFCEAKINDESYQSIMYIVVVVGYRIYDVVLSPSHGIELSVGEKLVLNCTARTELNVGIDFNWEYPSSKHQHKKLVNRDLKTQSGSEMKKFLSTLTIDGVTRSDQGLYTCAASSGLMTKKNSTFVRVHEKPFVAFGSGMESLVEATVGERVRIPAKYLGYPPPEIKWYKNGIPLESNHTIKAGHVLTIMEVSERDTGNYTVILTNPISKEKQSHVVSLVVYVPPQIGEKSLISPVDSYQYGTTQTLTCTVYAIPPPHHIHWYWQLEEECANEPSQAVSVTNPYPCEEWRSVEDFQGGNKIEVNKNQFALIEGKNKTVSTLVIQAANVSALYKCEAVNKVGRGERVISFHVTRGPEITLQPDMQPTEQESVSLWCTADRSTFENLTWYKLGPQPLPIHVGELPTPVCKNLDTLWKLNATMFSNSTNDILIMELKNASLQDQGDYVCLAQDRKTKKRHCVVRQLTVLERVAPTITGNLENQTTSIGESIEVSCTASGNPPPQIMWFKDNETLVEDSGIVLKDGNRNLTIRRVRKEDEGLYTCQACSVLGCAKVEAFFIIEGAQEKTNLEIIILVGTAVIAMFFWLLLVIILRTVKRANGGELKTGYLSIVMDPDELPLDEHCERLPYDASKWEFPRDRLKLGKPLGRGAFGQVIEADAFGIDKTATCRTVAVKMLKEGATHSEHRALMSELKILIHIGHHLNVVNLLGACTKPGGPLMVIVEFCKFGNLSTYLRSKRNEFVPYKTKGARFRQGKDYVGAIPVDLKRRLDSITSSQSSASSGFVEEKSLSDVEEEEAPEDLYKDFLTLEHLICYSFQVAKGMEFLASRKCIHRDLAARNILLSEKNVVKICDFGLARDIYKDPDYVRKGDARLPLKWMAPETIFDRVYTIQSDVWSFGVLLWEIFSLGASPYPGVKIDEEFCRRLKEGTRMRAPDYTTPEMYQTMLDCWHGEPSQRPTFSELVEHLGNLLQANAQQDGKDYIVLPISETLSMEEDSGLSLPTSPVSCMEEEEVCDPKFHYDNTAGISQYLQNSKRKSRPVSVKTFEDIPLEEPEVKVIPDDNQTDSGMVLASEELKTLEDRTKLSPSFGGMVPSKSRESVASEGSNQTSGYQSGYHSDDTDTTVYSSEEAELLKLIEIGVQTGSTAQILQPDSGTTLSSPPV
smiles,measurement,setting,value
COc1ccc(C(=O)Nc2ncc(SCc3ncc(C(C)(C)C)o3)s2)cc1OC,IC50,[1],0.05 µM
same,IC50,[2],1.9 µM
CNC(=O)c1cccc(CSc2cnc(Nc3ccccn3)s2)c1,IC50,L2987 [3],> 2.5 µM
O=C(NC1CCCC1)c1ccc(F)c(NCc2cnc(Nc3ccccn3)s2)c1,IC50,L2987 [3],> 2.5 µM
CNC(=O)c1cc(NCc2cnc(Nc3ccccn3)s2)c(F)cc1F,IC50,HUVEC,0.052 µM
same,IC50,L2987 [3],> 2.5 µM
O=C(NC1CC1)c1cc(NCc2cnc(Nc3ccccn3)s2)c(F)cc1F,IC50,[4],> 40 µM
same,IC50,[5],> 40 µM
same,IC50,[6],> 50 µM
same,IC50,[7],> 50 µM
same,IC50,[8],> 50 µM
same,IC50,[9],> 50 µM
same,IC50,[10],> 50 µM
same,Cmax,[11],148 µM
same,Tmax,[12],0.5 h
same,AUC,Mus musculus,649 µM·h
same,half-life,[13],1.7 h
same,MRT,[14],3.4 h
same,clearance,[15],11.8 mL/min/kg
same,Vd,[16],1.7 L/kg
same,bioavailability,[17],100%
same,Cmax,[18],44 µM
same,Tmax,[19],2 h
same,AUC,Rattus norvegicus,202 µM·h
same,half-life,[20],2.2 h
same,MRT,[21],3.5 h
same,clearance,[22],13.6 mL/min/kg
same,Vd,[23],1.1 L/kg
same,bioavailability,[24],100%
same,Cmax,[25],8 µM
same,Tmax,[26],0.75 h
same,AUC,Cynomolgus monkey [27],28.5 µM·h
same,IC50,HUVEC,0.025 µM
same,IC50,L2987 [3],> 2.5 µM
same,IC50,[1],> 10 µM
same,IC50,[28],0.4 µM
same,IC50,[29],0.2 µM
same,IC50,[30],0.37 µM
same,IC50,[31],> 5 µM
same,IC50,[32],> 5 µM
same,IC50,[33],> 5 µM
same,IC50,[34],> 5 µM
same,IC50,MAP kinase p38,> 5 µM
same,IC50,[35],> 10 µM
same,IC50,[36],> 10 µM
same,IC50,SRSF protein kinase 1,> 10 µM
same,IC50,[37],> 25 µM
same,IC50,[38],> 40 µM
same,IC50,[39],> 40 µM
same,inhibition in vivo at 25 mg/kg,HCT-116 [40],51%
same,inhibition in vivo at 50 mg/kg,HCT-116 [41],64%
same,IC50,[42],16.6 µM
same,half-life,[43],7.1 h
same,MRT,[44],7.9 h
same,bioavailability,[45],52%
same,inhibition in vivo at 60 mg/kg,L2987 [46],16%
same,inhibition in vivo at 90 mg/kg,L2987 [47],55%
same,inhibition in vivo at 180 mg/kg,L2987 [48],67%
same,inhibition in vivo at 25 mg/kg,L2987 [49],23%
same,inhibition in vivo at 50 mg/kg,L2987 [50],67%
same,inhibition in vivo at 12.5 mg/kg,HCT-116 [51],21%
same,IC50,[2],0.023 µM
same,IC50,[52],0.04 µM
same,clearance,[53],3.9 mL/min/kg
same,Vss,Cynomolgus monkey [54],1.6 L/kg
CNC(=O)c1cccc(NCc2cnc(Nc3ccccn3)s2)c1,IC50,L2987 [3],> 2.5 µM
CONC(=O)c1cccc(CSc2cnc(Nc3ccccn3)s2)c1,IC50,HUVEC,0.11 µM
same,IC50,L2987 [3],> 2.5 µM
O=C(NC1CC1)c1ccc(F)c(CCc2cnc(Nc3ccccn3)s2)c1,IC50,HUVEC,0.005 µM
same,IC50,L2987 [3],> 2.5 µM
O=C(NC1CC1)c1ccc(F)c(NCc2cnc(Nc3ccccn3)s2)c1,IC50,HUVEC,0.014 µM
same,IC50,L2987 [3],> 2.5 µM
CNC(=O)c1ccc(F)c(NCc2cnc(Nc3ccccn3)s2)c1,IC50,HUVEC,0.02 µM
same,IC50,L2987 [3],> 2.5 µM
O=C(NCCN1CCOCC1)c1ccc(F)c(NCc2cnc(Nc3ccccn3)s2)c1,IC50,L2987 [3],> 2.5 µM
O=C(NCc1ccccc1)c1ccc(F)c(NCc2cnc(Nc3ccccn3)s2)c1,IC50,HUVEC,0.12 µM
same,IC50,L2987 [3],> 2.5 µM
O=C(NCc1ccccn1)c1ccc(F)c(NCc2cnc(Nc3ccccn3)s2)c1,IC50,HUVEC,0.053 µM
same,IC50,L2987 [3],> 2.5 µM
